Data reported in patent US9074180B2, “Culture medium containing kinase inhibitors, and uses thereof” (THE UNIVERSITY COURT OF THE UNIVERSITY OF EDINBURGH, priority 2006, dated 2015).

What was measured:
[1] = test system: Mouse ES cells; assay: Mouse ES cell self-renewal culture; format: cell-based; settings: for ES cell propagation: single inhibitor in N2B27 medium containing LIF without BMP4; for Oct4/Sox1 marker status: single inhibitor in N2B27 medium without added LIF; for toxicity to ES cells: GSK-3 inhibitor alone in ES cell culture
Procedure: Mouse ES cells were cultured in the presence of an inhibitor of the FGF receptor and a MEK inhibitor. […] Undifferentiated cultures can be continuously passaged in these conditions while retaining expression of the pluripotency markers Oct4, Nanog, and Rex1.
However, these cells invariably differentiate and/or die after passaging. To reduce potential toxic side effects we used 2.5 fold lower doses and combined the two inhibitors together. […] Viability is lower and population doubling time slower in this two inhibitor (2i) condition than in the presence of ILIF, but differentiation is effectively restrained.
We reasoned that reduced growth of ES cells in 2i media could be due to increased activity of glycogen synthase kinase 3 (GSK-3) consequent to release of inhibitory phosphorylation by Rsk downstream of pErk. […] In serum-free N2B27 medium the differentiation response is reduced and some colonies appear morphologically Undifferentiated for several days.
However, when CHIR99021 is combined with 2i the differentiation response is lost entirely. Furthermore, CHIR99021 modulated the response to 2i such that ES cells grew as compact three dimensional colonies rather than flattened monolayers typically seen in LIF plus serum/BMP or in 2i. Differentiation was negligible in the three inhibitors (3i) and ES cells propagated rapidly. Most importantly undifferentiated colonies grew up at high efficiency after passaging (data not shown).

[2] = test system: cyclin-dependent kinases (CDKs); settings: at concentrations that completely block GSK-3 activity; cited from earlier work
[3] = test system: FGF receptor; assay: Substitution of FGFR antagonist in culture medium; format: cell-based; settings: substituting for SU5402
Procedure: Suitable concentrations of SU5402 are in the micromolar range, such as from 0.1-20 μM. Some embodiments use concentrations in the range 0.5-10 μM, especially in the range 1-5 μM.

[4] = test system: RH ES cells fused to Neural Stem cells (NS TGFP); assay: ES-NS cell fusion, pluripotent hybrid colony formation (reprogramming); format: cell-based
Procedure: (FIGS. 1A-1C)—FACS analysis for red and green fluorescence of RH×NS TGFP fusions. (FIG. 1A) Fusion mixture 24 hours after PEG treatment; (FIG. 1B) Purity check of FACS sorted hybrids gated in A. (FIG. 1C) Hybrids sorted in A were plated and the formed colonies were scored as percentage of colonies per plated hybrid. These scores take into account the purity of the FACS sorted cells. (FIG. 1D) Summary of data. (FIG. 1E) Examples of hybrid colony morphology.
RH ES cells, which express constitutively the dsRed fluorescent protein and hygromycin resistance, were fused to foetal derived Neural Stem cells (NS TGFP) that express the fusion protein TauGFP linked via an IRES to puromycin resistance. […] In the control no PD184352 was added. Treated and untreated primary hybrids were sorted 24 hours after fusion and then plated (FIG. 1A-C). Hygromycin and puromycin selection were added to the ES medium 3 days later. […] This effect is likely to be mediated by the increased levels of Nanog in treated RH cells. Accordingly, if Nanog is endogenously expressed then the MEK inhibitor can be used to upregulate Nanog and achieve associated effects, such as increased reprogramming.

[5] = test system: Nanog; assay: Nanog levels and Nanog dependence of self-renewal in ES cells; format: cell-based; settings: data not shown
Description: In fact, these cells differentiated.

[6] = test system: Human ES cells; assay: Human ES cell culture; format: cell-based; settings: media supplemented with CHIR99021 and PD184352; data not shown

Cc1c[nH]c(-c2cnc(NCCNc3ccc(C#N)cn3)nc2-c2ccc(Cl)cc2Cl)n1 [CHIR99021]
differentiation response ([1]; 3 μM, in the presence of serum, even with LIF): promotes differentiation | persistence of undifferentiated cells after passaging ([1]; serum-free N2B27 medium, GSK-3 inhibitor alone): Undifferentiated cells do not persist after passaging | cross reaction with CDKs [2]: does not cross react

CCN(CC)CCCCNc1ncc2cc(-c3cc(OC)cc(OC)c3)c(NC(=O)NC(C)(C)C)nc2n1 [PD173074]
fully effective concentration relative to SU5402 (fold lower) [3]: about 100 fold

O=C(NOCC1CC1)c1ccc(F)c(F)c1Nc1ccc(I)cc1Cl [PD184352]
percentage of hybrid colonies formed per plated hybrid ([4]; PD184352 treated RH cells (3 μM)): 2.25% | enhancement of ES-NS hybrid colony formation ([4]; RH cells treated 3 days prior and after fusion with 3 μM PD184352, vs untreated control): 45 fold | ES cell self-renewal in Nanog −/− ES cells ([5]; Nanog −/− ES cells): failed to show enhancing of ES cell self-renewal | levels of Nanog in ES cells [5]: increases the levels of Nanog | ES cell propagation [1]: sufficient for robust ES cell propagation | Oct4/Sox1 marker status [1]: remain Oct4 positive and Sox1 negative for several days

Cn1cc(C2=C(c3ccc(Cl)cc3Cl)C(=O)NC2=O)c2ccccc21 [SB216763]
toxicity to ES cells [1]: somewhat toxic

O=C1NC(=O)C(c2ccccc2[N+](=O)[O-])=C1Nc1ccc(O)c(Cl)c1 [SB415286]
toxicity to ES cells [1]: somewhat toxic

Cc1c[nH]c(/C=C2\C(=O)Nc3ccccc32)c1CCC(=O)O [SU5402]
ES cell propagation [1]: sufficient for robust ES cell propagation | Oct4/Sox1 marker status [1]: remain Oct4 positive and Sox1 negative for several days

LIF: Leukaemia Inhibitory Factor, gp130 receptor binding cytokine
propagation of cells on addition of LIF ([1]; media supplemented with CHIR99021 and PD184352, data not shown): further improved propagation | propagation of cells on addition of LIF [6]: further improved propagation
